# Source: the SangsterLogP compilation
row,SMILES,logP
1,Nn1c(S)nnc(-c2cc(Cl)cc(Cl)c2)c1=O,2.67
2,CSc1nnc(-c2ccc(OC(F)(F)F)cc2)c(=O)[nH]1,2.35
3,CNc1nnc(-c2cc(Cl)cc(Cl)c2)c(=O)n1N,1.91
4,CCCc1nnc(SC)n(N)c1=O,1.19
5,CSc1nnc(C2CCOCC2)c(=O)n1N,1.07
6,COc1nnc(C(C)(C)C)c(=O)n1N,1.31
7,Cn1c(S)nnc(-c2ccc(F)cc2)c1=O,2.38
8,Cc1nnc(C(C)(C)C)c(=O)n1N,1.03
9,CCOc1cccc(-c2nnc(C)n(NC)c2=O)c1,1.91
10,CNc1nnc(-c2ccc(F)c(Cl)c2)c(=O)n1C,1.6
11,CN(C)c1nnc(C(C)(C)C)c(=O)n1C,1.07
12,CSc1nnc(C)c(=O)n1N,0.15
13,CNc1nnc(C(C)(C)C)c(=O)n1N,0.52
14,CNc1nnc(-c2ccc(OC(F)(F)F)cc2)c(=O)[nH]1,1.86
15,CSc1nnc(C(C)C)c(=O)n1N,1.23
16,Cn1c(S)nnc(-c2cc(Cl)cc(Cl)c2)c1=O,3.43
17,CSc1nnc(C2CCCCC2)c(=O)n1N,2.09
18,CCOc1cccc(-c2nnc(S)n(C)c2=O)c1,2.67
19,CSc1nnc(CC(C)C)c(=O)n1N,1.53
20,CNc1nnc(-c2ccc(OC(F)(F)F)c(Cl)c2)c(=O)n1C,2.35
21,CSc1nnc(-c2cc(Cl)cc(Cl)c2)c(=O)n1N,3.02
